Two compounds from US20220332799A1, “HERV INHIBITORS FOR USE IN TREATING TAUOPATHIES” (Deutsches Zentrum Für Neurodegenerative Erkrankungen E.V. …, priority 2019, published 2022) can be followed below.

One assay has as its system N2a NM-GFP^sol cells. It counts as cell-based, mouse. Conditions: for percentage of recipient cells with NM-GFP aggregates: compounds added to cocultures 1 h after co-seeding, three concentrations, 12 h.
For another assay, the system named is MuERV Env and Gag. It counts as cell-based, mouse. Conditions: s2E P1 donors; Aza 200 nM or Dec 100 nM, then 5 days without drug; vs DMSO. Here is the method: To inhibit methyltransferases, s2E P1 donor cells were treated for three days with methyltransferase inhibitors 5-Azacytidine (Aza) 200 nM, Decitabine (Dec) 100 nM or DMSO as solvent control. Subsequently, the cells were cultured in the absence of the drugs for 5 days. Pre-treated donor cells were subsequently cocultured with recipient cells as described above to monitor aggregate induction efficiency in recipient N2a NM-GFP^sol cells. Cell lysates of donor cells were also analyzed for MuERV Env and Gag expression levels by western blot. To increase DNA methylation, the s2E donor clone (P21) was treated with methyl group donors L-methionine (L-M) 80 mM, Betaine (B) 80 mM, Choline chloride (CC) 20 mM or medium control for 6 days. MuERV Env and Gag protein levels were analyzed by western blot. Subsequently, cells were cocultured with recipient cells for 16 h. The percentage of aggregate containing recipient cells was compared to the percentage of aggregate bearing recipients cocultured with solvent-treated donors.
Pre-designed siRNAs against murine XPR1 and mCat-1 genes were used to knock-down genes coding for putative receptors. For transfection, 2-4×10^5 cells/well were seeded on 6 well plates. The next day, 30 nM siRNA or plasmid DNA was transfected using Lipofectamine RNAiMAX or Lipofectamine2000 transfection reagent, respectively, according to the manufacturer's instructions (Thermo Fisher Scientific). After 2 days, transfected cells were harvested for aggregate induction assays and qRT-PCR, western blot analysis.
For Western blot analysis, protein concentrations were measured using the Quick Start™ Bradford Protein assay (Bio-Rad). Proteins were separated on NuPAGE®Novex® 4-12 Bis-Tris Protein Gels (Life Technologies) followed by transfer onto a PVDF membrane (GE Healthcare). Western blot analysis was performed using rat hybridoma anti-MuERV Env mAb83A25; anti-xenotropic MuLV virus antibody ABIN457298 for detecting both Env and Gag (antibodies-online); mouse anti-MuERV Gag ab100970 (Abcam); mouse anti-Alix (1:1000; BD Bioscience); rat anti-HA 3F10 (1:1000; Roche); mouse anti-GAPDH 6C5 (1:5000; Abcam); mouse anti-Hsc/Hsp70 N27F3-4 (1:1000; ENZO); mouse anti-VSV-G A5977 (Sigma); rabbit anti-Tau ab64193 (Abcam); mouse anti-HERV K Env HERM-1811-5 (Amsbio); mouse anti-HERV K Gag HERM-1841-5 (Amsbio). The membrane was incubated with Pierce™ ECL Western Blotting Substrate (Thermo Fisher Scientific) according to the manufacturer's recommendations.

Assay [1] has as its system HEK Tau-FusionRed^sol cells expressing murine XPR1-HA. Briefly: Tau aggregate induction in recipient cells by coculture with N2a s2E Tau-GFP^CBD donor cells. The assay is classed as cell-based, human. As to conditions: donors pretreated with 10 μM; coculture 3 d in the presence of 10 μM; vs DMSO. Here is the method: To examine this effect on Tau aggregate spreading, an N2a s2E cell clone stably propagating aggregated Tau-GFP^CBD was produced (FIG. 11a). […]. Cells and EVs were analyzed for the presence of aggregated Tau-GFP. Pronase-resistant Tau-GFP was found in both cell lysate and EVs (FIG. 2q). To inhibit MuERV gene product maturation, donor cells were treated with Amprenavir for three days. Donor cells and donor cell-derived EVs were subsequently exposed for three days to recipient HEK cells expressing soluble Tau-FusionRed and the murine XPR1 receptor variant required for MuERV Env interaction. Due to this long incubation time, the coculture and EV induction assays were performed in the presence of Amprenavir (FIG. 11b). […]
Recipient cells were cultured on CellCarrier-96 plates or 384 black microplates (PerkinElmer) at appropriate cell numbers for 1 h, and then treated with 5-10 μl of prepared samples (isolated EVs or recombinant NM fibrils). […] On average, a total of 3-4×10^4 cells per well and at least 3 wells per treatment were analyzed.
The treatment of cells with Amprenavir (10 μM; Santa Cruz) and DMSO was performed for 72 h in EV-depleted medium in T175 flasks. Afterwards, the total numbers of viable cells and the viability upon drug treatment were determined using the Vi-VELL™ XR Cell Viability Analyzer (Beckman Coulter). […]

Entries after “also recorded” stand apart in the source; their conditions may differ. Read-outs that look alike come from different tables or passages of the source.

Turning to `Nc1ncn([C@H]2C[C@H](O)[C@@H](CO)O2)c(=O)n1` [Decitabine, 5-aza-2′-deoxycytidine], in the assay with N2a NM-GFP^sol cells (s2E P1 donors pretreated, Aza 200 nM or Dec 100 nM, vs DMSO), the “NM aggregate induction in recipient cells cocultured with pretreated donors” value was “significantly increased NM aggregate induction in recipient cells”. The “expression of MuERV proteins” value with MuERV Env and Gag is listed as “increased expression”.
Take `CC(C)CN(C[C@@H](O)[C@H](Cc1ccccc1)NC(=O)O[C@H]1CCOC1)S(=O)(=O)c1ccc(N)cc1` [Amprenavir]: the “percentage of recipient cells with NM-GFP aggregates” value was “reduce aggregate induction; also recorded: observed only when donor cells were cotreated” with N2a NM-GFP^sol cells (vs DMSO) and “reduced the percentage of recipient cells with NM-GFP aggregates” with N2a NM-GFP^sol cells (vs DMSO, listed as amprenavir). The “intercellular aggregate induction during coculture” value in the assay on N2a NM-GFP^sol cells (donor cells pre-treated with 10 μM for 3 days, coculture in the absence of drug, 16 h) is “significantly inhibited intercellular aggregate induction during coculture”. In addition, the “Tau-FusionRed aggregate induction in cocultures” value in assay [1] is given as “decreased Tau-FusionRed aggregate induction in Amprenavir-treated cocultures; also recorded: significantly decreased Tau-FusionRed aggregate induction in recipients”.
